From patent US20190076464A1, “CYTIDINE DEAMINASE INHIBITORS FOR THE TREATMENT OF PANCREATIC CANCER” (INSERM (OMSTOTIT NATIONAL DE LA SANTÉ ET DE LA RECHERCHE …, priority 2016, published 2019)

Assays:
[1] = test system: cancer cell proliferation; assay: Cancer cell proliferation, CDA targeting combined with metabolic inhibitor (FIG. 7); type: cell-based; conditions: in combination with CDA targeting
Text: This finding opens several other combinatory therapeutic options as glutaminase (CB-839, FIG. 7) and α-KG dehydrogenase (CPI-613, a lipoate analog, inhibits mitochondrial enzymes pyruvate dehydrogenase (PDH) and α-KG dehydrogenase in NCI-H460 cell line, disrupts tumor cell mitochondrial metabolism) inhibitors are being evaluated clinically for PDA subjects^53.

[2] = test system: pancreatic cancer cells; assay: Tumor metabolism (NAD+/NADH ratio) under pharmacological inhibition of CDA (FIG. 6C); type: cell-based, human; conditions: CDA inhibitor alone, FIG. 6C (NAD+/NADH ratio)
Text: Accordingly, we measure the glycolytic flux in CDA-deficient cells and the expression of key proteins involved in glycolysis in response to CDA targeting.

[3] = test system: pancreatic cancer cells; assay: Cell proliferation under pharmacological inhibition of CDA, without chemotherapy (FIG. 6B); type: cell-based, human; conditions: CDA inhibitor alone
[4] = test system: pancreatic cancer cells; assay: Sensitization of pancreatic cancer cells to gemcitabine by pharmacological inhibition of CDA (FIG. 6A); type: cell-based, human; conditions: in vitro, CDA inhibitor combined with gemcitabine
[5] = test system: PDA; conditions: in combination with gemcitabine, compared with gemcitabine alone, reference 6; cited from earlier work
[6] = test system: gemcitabine-resistant cells; conditions: reference 13; cited from earlier work

SMILES: O=CC[C@@H](O)[C@H](O)[C@H](O)CO [2-deoxy Glucose]
- cancer cell proliferation [1]: strongly inhibits cancer cell proliferation

SMILES: O=C1NCC=CCN1[C@@H]1O[C@H](CO)[C@@H](O)[C@H]1O [DR, 1,3-diazepinone riboside]
- tumor metabolism [2]: fails to alter
- cell proliferation [3]: fails to alter cell proliferation
- sensitization to gemcitabine [4]: sensitizes pancreatic cancer cells to gemcitabine

SMILES: C#Cc1cccc(Nc2ncnc3cc(OCCOC)c(OCCOC)cc23)c1 [Erlotinib]
- overall survival time [5]: only slightly increases overall survival time

SMILES: O=C1NC(O)CCN1[C@@H]1O[C@H](CO)[C@@H](O)[C@H]1O (stereo partly shown) [THU, Tetrahydrouridine]
- sensitivity to gemcitabine [6]: increases the sensitivity to gemcitabine

SMILES: O=C(Cc1cccc(OC(F)(F)F)c1)Nc1ccc(CCCCc2nnc(NC(=O)Cc3ccccn3)s2)nn1 [CB839]
- cancer cell proliferation [1]: strongly inhibits cancer cell proliferation
